{
  "source": "paper PMC6934184",
  "about": "“Selective DNA-PKcs inhibition extends the therapeutic index of localized radiotherapy and chemotherapy” (The Journal of Clinical Investigation, 2019)",
  "molecular_target": "T1, CSNK1E (CK1 epsilon) (Homo sapiens, UniProt P49674)",
  "T1 construct": "purchased Thermo Fisher Scientific (Life Technologies) SelectScreen",
  "T1 sequence (P49674 whole entry)": "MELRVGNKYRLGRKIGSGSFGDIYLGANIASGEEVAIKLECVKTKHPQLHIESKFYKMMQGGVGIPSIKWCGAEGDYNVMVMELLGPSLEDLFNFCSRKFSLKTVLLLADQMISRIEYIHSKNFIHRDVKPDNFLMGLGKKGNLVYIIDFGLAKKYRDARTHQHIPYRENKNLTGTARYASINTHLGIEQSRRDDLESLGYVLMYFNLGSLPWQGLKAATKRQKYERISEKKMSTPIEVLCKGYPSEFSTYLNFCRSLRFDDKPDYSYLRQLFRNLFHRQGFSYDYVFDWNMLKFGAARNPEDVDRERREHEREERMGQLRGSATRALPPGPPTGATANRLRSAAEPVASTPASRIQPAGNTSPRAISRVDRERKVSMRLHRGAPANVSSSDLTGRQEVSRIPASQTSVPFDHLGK",
  "experiment": "SelectScreen Z'LYTE",
  "format": "biochemical",
  "method_in_brief": "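SelectScreen broad panel; activity (Z'LYTE, Adapta) plus binding formats. ATP: Km app for CSF1R Z'LYTE; 10 for CAMK1 Adapta. Readout = % per kinase.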",
  "data": [
    {"compound": "CN(C(=O)CN1CCOCC1)c1ccc2sc3c(-c4cccc5c(=O)cc(N6CC7CCC(C6)O7)oc45)cccc3c2c1", "note": "[NU5455]", "values": [
      {"measurement": "inhibition at 1 µM", "value": -10.9, "unit": "%"}
    ]}
  ]
}
